We go through 28 compounds from patent publication US7964624B1, “Inhibitors of serine proteases” (priority 2005, dated 2011).

One test has as its target T1, HCV NS3 protease domain (Hepatitis C virus genotype 1b, UniProt Q9WMX2).
T1 construct: The first 181 amino acids of NS3 (residues 1027-1207 of the viral polyprotein); hexa-histidine (C); made in house; host or cells: E. coli BL21/DE3 pLysS
The test is described as follows: biochemical. The note with it: Enzyme Assay 1 (HCV NS3 Protease Domain Peptide Cleavage Assay) activity, apparent Ki class.

Test [1] has as its target T2, full-length hepatitis C viral protein NS3•4A (Hepatitis C virus genotype 1a, UniProt P27958).
T2 construct: hexa-histidine (N); made in house; host or cells: Sf9 insect cells (baculovirus, pVL1392)
Nature of the test: biochemical. More on the design: species or system HCV sub-type strain 1a. The following applies: Enzyme Assay 2 (HCV NS3 Peptide Cleavage Assay) activity, apparent Ki class.

Where only a bound is given, the exact number is not on record here.

`CCC[C@H](NC(=O)[C@@H]1C[C@]2(CC(c3cccc(Cl)c3)=NO2)CN1C(=O)[C@@H](NC(=O)CC1CCCCC1)C(C)(C)C)C(=O)C(=O)NCCC(=O)Nc1cc(OC)c2ccccc2c1` [Compound 206]: the Ki (on HCV NS3 protease domain; in test [1]) was 100 to 500 nM throughout.

For the compound `CCC[C@H](NC(=O)[C@@H]1C[C@]2(CC(c3cc(Cl)c4c(c3)OCCN4C)=NO2)CN1C(=O)[C@@H](NC(=O)CC1CCCCC1)C(C)(C)C)C(=O)C(=O)NC1CC1` [Compound 315], the Ki (at HCV NS3 protease domain; in test [1]) was less than 100 nM in each case.

Turning to `CCC[C@H](NC(=O)[C@@H]1C[C@]2(CC(c3cccc(Cl)c3)=NO2)CN1C(=O)[C@@H](NC(=O)[C@@H]1C[C@H]1c1ccccc1)C(C)(C)C)C(=O)C(=O)NC1CC1` [Compound 271], the Ki at HCV NS3 protease domain is 100 to 500 nM; in test [1], less than 100 nM.

With `CCC[C@H](NC(=O)[C@@H]1C[C@]2(CC(c3cccc(Cl)c3)=NO2)CN1C(=O)[C@@H](NC(=O)CC1CCCCC1)C(C)(C)C)C(=O)C(=O)NCc1ccc(-n2cccn2)cc1` [Compound 73], the Ki on HCV NS3 protease domain was greater than 500 nM; in test [1] it was 100 to 500 nM.

Consider `CCC[C@H](NC(=O)[C@@H]1C[C@]2(CC(c3ccc4c(c3)CCC(C)(C)O4)=NO2)CN1C(=O)[C@@H](NC(=O)CC1CCCCC1)C(C)(C)C)C(=O)C(=O)NC1CC1` [Compound 204], for which the Ki (at HCV NS3 protease domain; in test [1]) was 100 to 500 nM each time.

For the compound `CCC[C@H](NC(=O)[C@@H]1C[C@]2(CC(c3cccc(Cl)c3)=NO2)CN1C(=O)[C@@H](NC(=O)CC1CCC2(CC1)OCCO2)C(C)(C)C)C(=O)C(=O)NC1CC1` [Compound 445], the values for the Ki (at HCV NS3 protease domain; in test [1]) were 100 to 500 nM and less than 100 nM, respectively.

As for `CCC[C@H](NC(=O)[C@@H]1C[C@]2(CC(c3cccc(Cl)c3)=NO2)CN1C(=O)[C@@H](CC(=O)NC(C)C)C(C)C)C(=O)C(=O)NC1CC1` [Compound 280], the Ki (on HCV NS3 protease domain; in test [1]) was greater than 500 nM in each case.

`CCC[C@H](NC(=O)[C@@H]1C[C@]2(CC(c3cccc(Cl)c3)=NO2)CN1C(=O)CCN(c1ccccc1)S(=O)(=O)c1ccccc1)C(=O)C(=O)NC1CC1` [Compound 483]: the Ki (at HCV NS3 protease domain; in test [1]) was greater than 500 nM each time.

`CCC[C@H](NC(=O)[C@@H]1C[C@]2(CC(c3cccc(Cl)c3)=NO2)CN1C(=O)CC(NS(=O)(=O)c1ccc(OC)cc1)C(C)C)C(=O)C(=O)NC1CC1` (some centres unmarked) [Compound 395]: the Ki (on HCV NS3 protease domain; in test [1]) was greater than 500 nM each time.

On to `CCC[C@H](NC(=O)[C@@H]1C[C@]2(CC(c3cccc(Cl)c3)=NO2)CN1C(=O)C(NS(=O)(=O)c1ccc(F)cc1)c1ccccc1)C(=O)C(=O)NC1CC1` (some centres unmarked) [Compound 466], for which the Ki (on HCV NS3 protease domain; in test [1]) was greater than 500 nM each time.

Turning to `CCC[C@H](NC(=O)[C@@H]1C[C@]2(CC(c3cccc(Cl)c3)=NO2)CN1C(=O)[C@@H](NC(=O)CC1CCCCC1)C(C)(C)C)C(=O)C(=O)NC(C)C` [Compound 275], the Ki (on HCV NS3 protease domain; in test [1]) was 100 to 500 nM each time.

Regarding `CCC[C@H](NC(=O)[C@@H]1C[C@]2(CC(c3cccc(Cl)c3)=NO2)CN1C(=O)[C@@H](CC(=O)NCc1ccccc1)C(C)C)C(=O)C(=O)NC1CC1` [Compound 10], the Ki (at HCV NS3 protease domain; in test [1]) was greater than 500 nM each time.

In the case of `CCC[C@H](NC(=O)[C@@H]1C[C@]2(CC(c3cccc(Cl)c3)=NO2)CN1C(=O)[C@@H](NC(=O)CC1CCCCC1)C(C)(C)C)C(=O)C(=O)NC` [Compound 493], the figures for the Ki (on HCV NS3 protease domain; in test [1]) were 100 to 500 nM and less than 100 nM, respectively.

On to `CCC[C@H](NC(=O)[C@@H]1C[C@]2(CC(c3cccc(Cl)c3)=NO2)CN1C(=O)[C@@H](NC(=O)CC1CCCCC1)C(C)(C)C)C(=O)C(=O)NC1CCCCC1` [Compound 99], for which the Ki (at HCV NS3 protease domain; in test [1]) was greater than 500 nM throughout.

Regarding `CCC[C@H](NC(=O)[C@@H]1C[C@]2(CC(c3cccc(Cl)c3)=NO2)CN1C(=O)[C@@H](NC(=O)CC1CCCCC1)C(C)(C)C)C(=O)C(=O)NCCC1C(=O)Nc2ccccc21` (some centres unmarked) [Compound 458], the Ki (on HCV NS3 protease domain; in test [1]) was greater than 500 nM throughout.

For `CCC[C@H](NC(=O)[C@@H]1C[C@]2(CC(c3cccc(Cl)c3)=NO2)CN1C(=O)[C@@H](NC(=O)CC1CCCCC1)C(C)(C)C)C(=O)C(=O)Nc1ccc(F)c(F)c1` [Compound 573], the Ki (on HCV NS3 protease domain; in test [1]) was greater than 500 nM throughout.

As for `CC(C)(C)[C@H](NC(=O)CC1CCCCC1)C(=O)N1C[C@@]2(CC(c3cc(Cl)c4c(c3)CCO4)=NO2)C[C@H]1C(=O)NC(CC1CCC1)C(=O)C(=O)NC1CC1` (some centres unmarked) [Compound 18], the Ki (at HCV NS3 protease domain; in test [1]) was less than 100 nM in each case.

On to `CCC[C@H](NC(=O)[C@@H]1C[C@]2(CC(c3cccc(Cl)c3)=NO2)CN1C(=O)c1cccc(S(=O)(=O)N2CCc3ccccc3C2)c1)C(=O)C(=O)NC1CC1` [Compound 328], for which the Ki (on HCV NS3 protease domain; in test [1]) was greater than 500 nM each time.

Take `CCC[C@H](NC(=O)[C@@H]1C[C@]2(CC(c3cccc(Cl)c3)=NO2)CN1C(=O)[C@@H](NC(=O)CC1CCCCC1)C(C)(C)C)C(=O)C(=O)NC(CC)CC` [Compound 300]: the Ki (at HCV NS3 protease domain; in test [1]) was 100 to 500 nM throughout.

For the compound `CCC[C@H](NC(=O)[C@@H]1C[C@]2(CC(c3cccc(Cl)c3)=NO2)CN1C(=O)[C@@H](NC(=O)CC1(C)CCCCC1)C(C)(C)C)C(=O)C(=O)NC1CC1` [Compound 29], the Ki (on HCV NS3 protease domain; in test [1]) was 100 to 500 nM in each case.

Take `CCC[C@H](NC(=O)[C@@H]1C[C@]2(CC(c3cccc(Cl)c3)=NO2)CN1C(=O)[C@@H](NC(=O)Cc1cncc(Br)c1)C(C)(C)C)C(=O)C(=O)NC1CC1` [Compound 339]: the Ki was 100 to 500 nM on HCV NS3 protease domain and less than 100 nM in test [1].

For the compound `CCC[C@H](NC(=O)[C@@H]1C[C@]2(CC(c3cccc(Cl)c3)=NO2)CN1C(=O)[C@@H](NC(=O)CC1CCCCC1)C(C)(C)C)C(=O)C(=O)Nc1ccon1` [Compound 293], the Ki (on HCV NS3 protease domain; in test [1]) was greater than 500 nM throughout.

In the case of `CCC[C@H](NC(=O)[C@@H]1C[C@]2(CC(c3cccc(Cl)c3)=NO2)CN1C(=O)[C@@H](NC(=O)CC1CCCCC1)C(C)(C)C)C(=O)C(=O)NC1CCS(=O)(=O)C1` (some centres unmarked) [Compound 565], the Ki (at HCV NS3 protease domain; in test [1]) was greater than 500 nM each time.

Take `CCC[C@H](NC(=O)[C@@H]1C[C@]2(CC(c3cncc(Cl)c3)=NO2)CN1C(=O)[C@@H](NC(=O)CC1CCCCC1)C(C)(C)C)C(=O)C(=O)NC1CC1` [Compound 292]: the Ki at HCV NS3 protease domain is 100 to 500 nM; in test [1], less than 100 nM.

In the case of `CCC[C@H](NC(=O)[C@@H]1C[C@]2(CC(c3cccc(Cl)c3)=NO2)CN1C(=O)[C@@H](NC(=O)CC1CCCCC1)C(C)(C)C)C(=O)C(=O)N[C@H](C)CC` [Compound 452], the results for the Ki (at HCV NS3 protease domain; in test [1]) were greater than 500 nM and 100 to 500 nM, respectively.

Take `CCC[C@H](NC(=O)[C@@H]1C[C@]2(CC(c3cccc(Cl)c3)=NO2)CN1C(=O)[C@@H](NC(=O)CC1CCCCC1)C(C)(C)C)C(=O)C(=O)NCCOC` [Compound 404]: the Ki on HCV NS3 protease domain is greater than 500 nM; in test [1] it was 100 to 500 nM.

As for `CCC[C@H](NC(=O)[C@@H]1C[C@]2(CC(c3ccsc3)=NO2)CN1C(=O)[C@@H](NC(=O)CC1CCCCC1)C(C)(C)C)C(=O)C(=O)NC1CC1` [Compound 168], the Ki (on HCV NS3 protease domain; in test [1]) was 100 to 500 nM in each case.

For `CCC[C@H](NC(=O)[C@@H]1C[C@]2(CC(c3cccc(Cl)c3)=NO2)CN1C(=O)[C@@H](NC(=O)CC1CCCCC1)C(C)(C)C)C(=O)C(=O)N[C@@H](C)c1cccc(OC)c1` [Compound 255], the Ki (on HCV NS3 protease domain; in test [1]) was 100 to 500 nM each time.
